Patent US7456293B2, “Substituted carboxylic acid derivatives for the treatment of diabetes and lipid disorders, their preparation and use” (SK Holding Co., Ltd, priority 2005, dated 2008)
pEC50: −log10 of the molar value. Marks after values point to notes of the source that are not given here. Blank lines part the entries; values can stand above or below the compound they belong to.

Tests used:
[1] = target: T1, hPPAR-γ (Homo sapiens, UniProt P37231); test: In vitro hPPAR-γ transactivation (GAL4 fusion, SPRAT cells, luciferase); format: cell-based
T1 construct: expressed in transfected cells
T1 sequence (P37231 238-503 limits assumed): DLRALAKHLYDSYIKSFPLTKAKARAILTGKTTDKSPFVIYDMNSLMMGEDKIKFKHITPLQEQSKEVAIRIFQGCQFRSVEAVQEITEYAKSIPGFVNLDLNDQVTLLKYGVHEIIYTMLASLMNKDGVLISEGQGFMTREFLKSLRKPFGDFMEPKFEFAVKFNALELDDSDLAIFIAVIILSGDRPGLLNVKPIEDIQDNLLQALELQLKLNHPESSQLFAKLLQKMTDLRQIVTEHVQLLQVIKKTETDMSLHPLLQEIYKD

[2] = test system: human ApoA1 transgenic mice; test: Changes in plasma ApoA1, HDL cholesterol and TG levels (human ApoA1 transgenic mice); format: in vivo; conditions: for ApoA1 % increase / HDL Cholesterol % increase / TG % decrease: oral, 8 days
Description: Homozygous human ApoA1 transgenic mouse strains (C57BL/6-TgN1Rub) were purchased from Jackson Laboratories (Bar Harbor, Me.). The mice were grouped by six and housed in hanging wire bottom cages with standard laboratory conditions. The mice had free access to normal chow (Purina Rodent Chow) and water. The grouped mice were then dosed orally with vehicle (CMC) or with different concentrations of the compound of Example 1 (3, 10 or 30 mg/kg/d) for 8 days. Compounds were dosed as suspension in 0.5% CMC+0.2% Tween 80 in sterile water. Fresh suspension was prepared for 8 days dosing and kept in a refrigerator. The suspension was administered orally by gavage daily in the morning. The control group received vehicle (dose 10 mL/kg). Blood samples were collected by cardiac puncture, centrifuged and analyzed for ApoA1, HDL cholesterol, and triglyceride.

[3] = test system: 3T3-L1 adipocytes; test: Insulin-stimulated glucose uptake (2-deoxy-D-glucose) in differentiated 3T3-L1 adipocytes; format: cell-based
Text: Adipocyte differentiation was then induced using standard protocol. […] The maintenance medium was changed every 3 days until the cells were utilized for experimentation. […] In each instance, the medium was changed twice a day. […]

[4] = test system: db/db mice; test: Oral glucose tolerance test (OGTT) in db/db mice; format: in vivo
Description: OGTT was performed in db/db mice after dosing of either 3 or 10 mg/kg of the compound of Example 1 for 9 days. The animals were dosed with 10% glucose in water in a volume of 10 mL/kg. Blood samples were taken at 0, 30, 60 and 120 min post dose.

[5] = target: T2, hPPAR-α (Homo sapiens, UniProt Q07869); test: In vitro hPPAR-α transactivation (GAL4 fusion, SPRAT cells, luciferase); format: cell-based
T2 construct: expressed in transfected cells
T2 sequence (Q07869 239-466 limits assumed): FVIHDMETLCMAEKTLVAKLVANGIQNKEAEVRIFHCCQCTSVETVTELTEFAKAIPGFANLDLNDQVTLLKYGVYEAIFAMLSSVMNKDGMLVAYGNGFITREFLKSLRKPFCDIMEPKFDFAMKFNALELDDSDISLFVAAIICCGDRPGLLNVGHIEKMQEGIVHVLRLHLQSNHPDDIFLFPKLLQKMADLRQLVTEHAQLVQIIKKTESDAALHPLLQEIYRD

[6] = test system: high cholesterol-fed rats; test: Changes in plasma lipid parameters (high cholesterol-fed rats); format: in vivo; conditions: 10 mg/kg
Description: Blood was collected and analyzed for non-fasted total cholesterol and free fatty acid levels. The results are calculated as the percent reduction relative to vehicle control.

[7] = test system: db/db mice; test: Efficacy test for blood glucose and plasma lipid lowering (db/db mice); format: in vivo; conditions: male db/db mice, oral; for Insulin % max reduction d7: day 7, vs vehicle; for BG % max reduction d14 / Fatty Acid % max reduction d14 / TG % max reduction d14 / Insulin % max reduction d14: day 14, vs vehicle
Text: Mice used in this study were standard model of type II diabetes developed by Jackson Laboratories (Bar Harbor, Me.). Mice (male, 8-wk-old db/db) were housed six per cage in hanging wire bottom cages with standard laboratory conditions. The mice had free access to normal chow (Purina Rodent Chow) and water. At the age of 8-10 weeks, the mice were bled from the tail for glucose matching among the groups (n=6 per group). To test the PPAR-γ effect of the compounds of Examples 1, 2, 3, 4 and 6, mice were then dosed orally with vehicle (CMC) or with two different concentrations (3 or 10 mg/kg/d) of each compound for 7-14 days. Each compound of Examples 1, 2, 3, 4 and 6 was dosed as suspension in 0.5% CMC+0.2% Tween 80 in sterile water. Fresh suspension was prepared for 8 days dosing and kept in a refrigerator. The suspension was administered orally by gavage daily in the morning. The control group received vehicle (dose 10 mL/kg). Blood glucose concentrations (in fed state) were monitored at basal and 3 h post dose on day 14 either by putting a drop of blood from tails on a glucose strip for analysis by a glucometer or using a 10 μL plasma sample in a YSI (Yellow Spring Instruments, OH) analyzer. […] The results are expressed in Table 2 as % maximal reduction that is achieved relative to vehicle treated control group. Animals having more than 300 mg/dL of blood glucose were used for testing. Statistical significance (* P<0.05; ** P<0.01) is given versus the appropriate sample in vehicle treated animals.

[8] = target: T3, hPPAR-δ (Homo sapiens, UniProt Q03181); test: In vitro hPPAR-δ transactivation (GAL4 fusion, SPRAT cells, luciferase); format: cell-based; conditions: for pEC50: 6 hours, read-out: PPAR-δ EC50; for PPAR-δ % Max: relative to TTA = 100
T3 construct: expressed in transfected cells
T3 sequence (Q03181 211-439 limits assumed): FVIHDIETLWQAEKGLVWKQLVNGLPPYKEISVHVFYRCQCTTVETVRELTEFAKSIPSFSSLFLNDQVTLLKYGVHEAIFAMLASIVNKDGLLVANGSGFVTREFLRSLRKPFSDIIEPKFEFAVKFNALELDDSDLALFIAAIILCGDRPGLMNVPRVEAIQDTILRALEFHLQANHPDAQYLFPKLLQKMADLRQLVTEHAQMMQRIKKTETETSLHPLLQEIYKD

[9] = oral, 4 days, vs vehicle control

pEC50 ([1]; 6 hours, read-out: PPAR-γ EC50): 7.40
PPAR-γ % Max ([1]; relative to Rosiglitazone = 100): 62%
pEC50 ([5]; 6 hours, read-out: PPAR-α EC50): 4.76
PPAR-α % Max ([5]; relative to Reference (α) = 100): 44%
pEC50 [8]: 4.30
PPAR-δ % Max [8]: 68%
Compound: CCOC(Cc1ccc(OCCn2c(C(F)(F)F)nc3ccccc32)cc1)C(=O)O (racemic) [Example 1, 2-ethoxy-3-(4-{2-[2-(trifluoromethyl)-1H-benzimidazol-1-yl]ethoxy}phenyl)propanoic acid]
ApoA1 % increase ([2]; 3 mg/kg): 52%
HDL Cholesterol % increase ([2]; 3 mg/kg): 47* %
TG % decrease ([2]; 3 mg/kg): 52* %
ApoA1 % increase ([2]; 10 mg/kg): 137%
HDL Cholesterol % increase ([2]; 10 mg/kg): 73** %
TG % decrease ([2]; 10 mg/kg): 56** %
ApoA1 % increase ([2]; 30 mg/kg): 186%
HDL Cholesterol % increase ([2]; 30 mg/kg): 51** %
TG % decrease ([2]; 30 mg/kg): 67** %
HDL-cholesterol (in words) ([2]; through increase in human ApoA1 levels): greatly increased HDL-cholesterol
glucose transport activity ([3]; 1 μM compound in the presence of 100 nM insulin, 48 h, FIG. 1): significantly increased
glucose transport ([3]; separate treatment: 1 μM compound alone or 100 nM insulin alone, 48 h, 3T3-L1 adipocytes): increase in glucose transport
AUC for blood glucose, reduction vs vehicle control ([4]; 3 mg/kg for 9 days): 49%
AUC for blood glucose, reduction vs vehicle control ([4]; 10 mg/kg for 9 days): 48%
plasma total cholesterol and free fatty acid levels (in words) [6]: significantly reduced
Free Fatty Acid % reduction [6, 9]: 68** %
Total Cholesterol % reduction [6, 9]: 69** %
Insulin % max reduction d7 ([7]; 3 mg/kg): 85** (d7) %
BG % max reduction d14 ([7]; 3 mg/kg): 69** %
Fatty Acid % max reduction d14 ([7]; 3 mg/kg): 47** %
TG % max reduction d14 ([7]; 3 mg/kg): 52** %
Insulin % max reduction d7 ([7]; 10 mg/kg): 87** (d7) %
BG % max reduction d14 ([7]; 10 mg/kg): 73** %
Fatty Acid % max reduction d14 ([7]; 10 mg/kg): 72** %
TG % max reduction d14 ([7]; 10 mg/kg): 55** %

Compound: CCOC(Cc1ccc(OCCn2c(C(F)(F)C(F)(F)F)nc3ccccc32)cc1)C(=O)O (stereo not drawn) [Example 2, 2-ethoxy-3-(4-{2-[2-(pentafluoroethyl)-1H-benzimidazol-1-yl]ethoxy}phenyl)propanoic acid]
BG % max reduction d14 ([7]; 3 mg/kg): 57** %
Fatty Acid % max reduction d14 ([7]; 3 mg/kg): 45** %
Insulin % max reduction d14 ([7]; 3 mg/kg): 59** (d14) %
TG % max reduction d14 ([7]; 3 mg/kg): 50** %
BG % max reduction d14 ([7]; 10 mg/kg): 75** %
Fatty Acid % max reduction d14 ([7]; 10 mg/kg): 71** %
Insulin % max reduction d14 ([7]; 10 mg/kg): 75** (d14) %
TG % max reduction d14 ([7]; 10 mg/kg): 70** %

Compound: CCOC(Cc1ccc(OCCn2c(C(F)(F)F)nc3cc(C(F)(F)F)ccc32)cc1)C(=O)O (stereo not drawn) [Example 3, 3-(4-{2-[2,5-bis(trifluoromethyl)-1H-benzimidazol-1-yl]ethoxy}phenyl)-2-ethoxypropanoic acid]
BG % max reduction d14 ([7]; 3 mg/kg): 77** %
Fatty Acid % max reduction d14 ([7]; 3 mg/kg): 49** %
Insulin % max reduction d14 ([7]; 3 mg/kg): 76** (d14) %
TG % max reduction d14 ([7]; 3 mg/kg): 61** %
BG % max reduction d14 ([7]; 10 mg/kg): 77** %
Fatty Acid % max reduction d14 ([7]; 10 mg/kg): 76** %
Insulin % max reduction d14 ([7]; 10 mg/kg): 79** (d14) %
TG % max reduction d14 ([7]; 10 mg/kg): 77** %

Compound: CCOC(Cc1ccc(OCCn2c(C(F)(F)F)nc3cc(F)ccc32)cc1)C(=O)O (stereo not drawn) [Example 4, 3-(4-{2-[5-fluoro-2-(trifluoromethyl)-1H-benzimidazol-1-yl]ethoxy}phenyl)-2-ethoxypropanoic acid]
BG % max reduction d14 ([7]; 3 mg/kg): 68** %
Fatty Acid % max reduction d14 ([7]; 3 mg/kg): 25** %
Insulin % max reduction d14 ([7]; 3 mg/kg): 79** (d14) %
TG % max reduction d14 ([7]; 3 mg/kg): 64** %
BG % max reduction d14 ([7]; 10 mg/kg): 73** %
Fatty Acid % max reduction d14 ([7]; 10 mg/kg): 27** %
Insulin % max reduction d14 ([7]; 10 mg/kg): 79** (d14) %
TG % max reduction d14 ([7]; 10 mg/kg): 58** %

Compound: CCO[C@@H](Cc1ccc(OCCn2c(C(F)(F)F)nc3ccccc32)cc1)C(=O)O [Example 6, (2S)-3-{4-[2-(2-trifluoromethyl-benzoimidazol-1-yl)-ethoxy]-phenyl}-2-ethoxy-propionic acid]
insulin-stimulated glucose uptake, enantio-dependency ([3]; each enantiomer vs racemate, FIG. 2): statistically significant difference (P<0.01) over racemate
Insulin % max reduction d7 ([7]; 3 mg/kg): 87** (d7) %
BG % max reduction d14 ([7]; 3 mg/kg): 53** %
Fatty Acid % max reduction d14 ([7]; 3 mg/kg): 54** %
TG % max reduction d14 ([7]; 3 mg/kg): 62** %
Insulin % max reduction d7 ([7]; 10 mg/kg): 86** (d7) %
BG % max reduction d14 ([7]; 10 mg/kg): 73** %
Fatty Acid % max reduction d14 ([7]; 10 mg/kg): 60** %
TG % max reduction d14 ([7]; 10 mg/kg): 66** %

pEC50 [8]: 4.42
PPAR-δ % Max [8]: 100%
Compound: CCCCCCCCCCCCCCSCC(=O)O [TTA (δ), reference compound]
